Data on 9 compounds can be found in ChEMBL document CHEMBL1201862, “PubChem BioAssay data set” (2004).

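Grown in 96-well plates, cells were treated for 48 hours with each compound at five concentrations. Insufficient inhibition: endpoint recorded as highest concentration tested. GI50: concentration for 50% inhibition of growth.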 Calls of active or inactive are those of the source. No stated cut-off is given here; in the data, active = GI50 up to about 1.1 µM and inactive = higher.

What all share (test): NCI tumour cell line growth inhibition, 48 h
The subject of assay [1] is HCT-15.
In assay [2] the test system is SK-MEL-5.
The subject of assay [3] is NCI-H226.
Assay [4] concerns OVCAR-4.
The test system of assay [5] is HT-29.
Assay [6] relates to HOP-62.
Assay [7] has as its system NCI-H23.
Assay [8] relates to SK-MEL-28.
Assay [9] concerns RXF 393.
Assay [10] deals with MDA-N.
The test system of assay [11] is SW-620.
Assay [12] concerns LOX IMVI.
The subject of assay [13] is CCRF-CEM.
Assay [14] relates to SN12C.
The test system of assay [15] is Malme-3M.
The subject of assay [16] is IGROV-1.
Assay [17] has as its system SF-268.
The test system of assay [18] is HL-60.

Consider `Cc1ccc2c(c1)NC(c1ccc(C(=O)O)cc1)c1cccn1-2` (configuration not stated), for which the GI50 was > 100 µM in assay [1]; > 100 µM (inactive) in [2]; > 100 µM (inactive) in assay [3]; 17.2 µM (inactive) in [4]; 78.3 µM (inactive) in assay [5]; 24 µM (inactive) in assay [6]. The GI50 in assay [7] was > 100 µM (inactive); in [8], > 100 µM (inactive); in assay [9], 19.7 µM (inactive); in [10], 75.2 µM (inactive); in assay [11], > 100 µM (inactive); in assay [12], > 100 µM (inactive). Also, the GI50 was > 100 µM (inactive) in assay [13] and 69.7 µM (inactive) in [14].
For `Cc1cc(C)c(C#N)c(SC(=S)NC(=O)c2ccccc2)n1`, the GI50 was > 100 µM in [1]; > 100 µM (inactive) in [2]; > 100 µM (inactive) in assay [3]; > 100 µM (inactive) in assay [4]; > 100 µM (inactive) in [5]; > 100 µM (inactive) in assay [6]. Moreover, the GI50 is > 100 µM (inactive) in assay [7]; > 100 µM (inactive) in [8]; 3.95 µM (inactive) in assay [9]; > 100 µM (inactive) in [10]; > 100 µM (inactive) in [11]; > 100 µM (inactive) in [15]. Also, the GI50 in [16], in assay [13], in assay [14] and in assay [17] was > 100 µM (inactive) in each case.
Consider `CN(C)CCNC(=O)c1cccc2c(NC(CCCNC(=N)N)C(=O)O)c3ccccc3nc12` (configuration not stated), for which the GI50 is 6.37 µM in assay [1]; 6.05 µM (inactive) in assay [2]; 3.88 µM (inactive) in [3]; 5.09 µM (inactive) in assay [4]; 2.7 µM (inactive) in [5]; 9.73 µM (inactive) in assay [6]. Besides, the GI50 in assay [7] is 5.53 µM (inactive); in [8], 25.7 µM (inactive); in assay [18] it was > 100 µM (inactive); in assay [10] it was 14 µM (inactive); in assay [11], 5.4 µM (inactive); in assay [15] it was 3.86 µM (inactive). The GI50 in [16] is 4.59 µM (inactive); in assay [12] it was 3.85 µM (inactive); in [13], 15.3 µM (inactive); in assay [14] it was 10.5 µM (inactive); in assay [17] it was 9.2 µM (inactive).
Consider `COc1cccc([C@@H]2C/C(=N\NC(=O)C(=O)N[C@@H](C)c3ccccc3)c3cc4c(cc3N2)OCO4)c1`, for which the GI50 in assay [1] is 27.4 µM; in [2], 3.06 µM (inactive); in assay [3], 10.5 µM (inactive); in assay [4] it was 74 µM (inactive); in assay [6], 69.5 µM (inactive); in assay [8], > 100 µM (inactive). The GI50 in assay [9] was > 100 µM (inactive); in [10] it was 7.19 µM (inactive); in assay [11] it was 16 µM (inactive); in assay [12], 80 µM (inactive); in [13], 28.1 µM (inactive); in assay [14], 42 µM (inactive). The GI50 in [17] is 29.9 µM (inactive).
Turning to `O=C(Nc1ccc(N2C(=O)CSC2c2ccccc2O)cc1)c1ccc(N2C(=O)CSC2c2ccccc2O)cc1` (configuration not stated), the GI50 in [1] was > 100 µM; in assay [2] it was 77.4 µM (inactive); in [4], 67.6 µM (inactive); in [5], > 100 µM (inactive); in [6] it was 32.4 µM (inactive); in [7] it was 64.4 µM (inactive). Moreover, the GI50 was 39.1 µM (inactive) in [8]; 55.6 µM (inactive) in [9]; 83.8 µM (inactive) in [10]; > 100 µM (inactive) in assay [11]; 98.4 µM (inactive) in assay [15]; > 100 µM (inactive) in assay [16]. In addition, the GI50 in assay [12] is 75.3 µM (inactive); in [13] it was > 100 µM (inactive); in assay [14], > 100 µM (inactive); in assay [17], 95.1 µM (inactive).
`CC1(CCCCO)C=CC(S(=O)(=O)c2ccccc2)CC1` (configuration not stated): the GI50 was 3.69 µM in [1]; 4.27 µM (inactive) in assay [2]; 2.43 µM (inactive) in [3]; 8.67 µM (inactive) in assay [4]; 1.82 µM (inactive) in assay [5]; 2.64 µM (inactive) in [6]. Moreover, the GI50 in assay [7] was 5.04 µM (inactive); in assay [8], 14.9 µM (inactive); in [9] it was 5.45 µM (inactive); in assay [10] it was 3.42 µM (inactive); in assay [11], 5.87 µM (inactive); in assay [15] it was 0.581 µM (active). In addition, the GI50 was 2.38 µM (inactive) in assay [16]; 1.78 µM (inactive) in [12]; 2.67 µM (inactive) in assay [13]; 11 µM (inactive) in assay [14]; 1.36 µM (inactive) in assay [17].
Consider `O=C1c2scc(-c3ccc(F)cc3)c2-n2cccc21`, for which the GI50 in assay [1] is 32.1 µM; in assay [2], 22.4 µM (inactive); in assay [3], 28.1 µM (inactive); in assay [4], 39.4 µM (inactive); in assay [5] it was 20.8 µM (inactive); in assay [6], 15.6 µM (inactive). Moreover, the GI50 was 29.2 µM (inactive) in [8]; 26.1 µM (inactive) in [9]; 8.67 µM (inactive) in assay [10]; 27.4 µM (inactive) in assay [11]; 52.1 µM (inactive) in assay [15]; 18.3 µM (inactive) in [16]. The GI50 in assay [12] is 24.6 µM (inactive); in assay [13] it was 28.6 µM (inactive); in assay [14], 20.6 µM (inactive); in assay [17] it was 36.4 µM (inactive).
Regarding `COc1ccc(/C=N/n2c(Cc3ccccc3)n[nH]c2=O)c(OC)c1`, the GI50 in assay [1] was > 100 µM; in assay [2], > 71.4 µM (inactive); in assay [3], 33.8 µM (inactive); in assay [4] it was > 58.6 µM (inactive); in assay [5], 19.5 µM (inactive); in [6] it was 20.9 µM (inactive). Further, the GI50 is 29.4 µM (inactive) in assay [7]; > 100 µM (inactive) in assay [8]; 9.98 µM (inactive) in assay [9]; > 100 µM (inactive) in [10]; > 85.9 µM (inactive) in assay [11]; 59.2 µM (inactive) in assay [15]. Further, the GI50 in assay [16] is 28.8 µM (inactive); in assay [12], 27.5 µM (inactive); in assay [13], > 100 µM (inactive); in [14], > 100 µM (inactive); in assay [17] it was 15.5 µM (inactive).
As to `COC([C@@H](OC(=O)c1ccccc1)[C@H](OC(=O)c1ccccc1)C(O)COC(=O)c1ccccc1)n1cc(C)c(=O)[nH]c1=O` (some centres not stated), the GI50 in assay [1] is 27 µM; in [2], 11.7 µM (inactive); in [3] it was 20.8 µM (inactive); in assay [4], 7.83 µM (inactive); in assay [5] it was 15.7 µM (inactive); in assay [6], 35.3 µM (inactive). The GI50 in assay [7] was 29.4 µM (inactive); in assay [8], 39.3 µM (inactive); in assay [9], 14 µM (inactive); in [10], 30.9 µM (inactive); in [11], 21.3 µM (inactive); in assay [15], 23.6 µM (inactive). Moreover, the GI50 is 31.4 µM (inactive) in assay [16], 15.1 µM (inactive) in [12], 43.2 µM (inactive) in assay [14] and 29.7 µM (inactive) in assay [17].
